Format in all cases: physicochemical
Series [1] is described as follows: Hygroscopicity by dynamic vapor sorption (DVS). The settings on record: for Crystal form after DVS test: XRPD after DVS 0% RH-95% RH-0% RH, 25° C. As for the experimental part: Dynamic vapor sorption (DVS) curves were acquired on a DVS Intrinsic in Surface Measurement Systems (SMS). The relative humidity at 25° C. was corrected with the deliquescence points of LiCl, Mg(NO3)2 and KCl.
After the mass change rate over time was less than 0.002%, the moisture absorption characteristics of the samples when the humidity changed from 0% RH to 95% RH were tested, as well as the moisture desorption characteristics of the samples when the humidity changed from 0% RH to 95% RH to 0% RH were tested, and the humidity change step was 10% RH. The value of the mass change rate dm/dt less than 0.002% was considered as balance equilibration, the mass change rate within 10 min less than 0.002%/min was considered as the equilibration standard during the testing process, and the maximum equilibration time was 3 h. The isothermal moisture sorption/desorption characteristics under this test condition were determined and XRPD test was performed on the samples after the DVS test.

Series [2] is described as follows: Dynamic solubility in SGF, FaSSIF, FeSSIF and water at 37° C. The note with it: thermodynamic from solid, sampling at 1, 2, 4 and 24 h, time point of the value not stated. The protocol: (§1) The purity and solubility of the samples in the test were tested by Waters ultra performance liquid chromatograph, and the conditions are shown in Table 6:
In the test, 45 mg of the solid and 4.5 mL of the vehicle were mixed in a 5 mL centrifuge tube, then the centrifuge tube was sealed and fixed on a rotating disk at a rotating speed of 40 rpm, and the rotating disk was placed in a 37° C. incubator. Sampling was performed at four time points of 1, 2, 4 and 24 h on equilibration, followed by filtration. The filtrate was separated at each sampling time point to test the concentration and pH, and the solid was tested for crystal form.

Series [3] can be described thus: Suspension competition experiments on crystal form A and hydrate crystal forms C and D of maleate at different water activities (XRPD). The settings on record: for Result (crystal form by XRPD after suspension competition): H2O. As for the experimental part: The mixtures were stirred at room temperature for 24 h, and then filtered to obtain saturated solutions. About 10 mg of a crystal form A/C/D of maleate was added to each saturated solution, the mixtures were suspended and stirred at room temperature for 2 days, and then subjected to the XRPD test. Two 5-mL vials were taken, water (2 mL) was added to each vial, and excessive crystal form B of maleate was added. The mixtures were stirred at 50° C./80° C. for 20 h/2 h, and then filtered to obtain saturated solutions. About 10 mg of the crystal form A/C/D of maleate was added to each saturated solution, and the mixtures were suspended and stirred at 50° C./80° C. for 1 day/3.5 h, and then subjected to the XRPD test.

Experiment in series [4]: as above
The note with it: room temperature, 3.5 h.

Series [5] in a line: Fluidity (angle of repose of a single API). The note with it: D90 controlled at 200 μm.
A short description of series [6]: Physical and chemical stability in open vials (HPLC purity, XRPD). The settings on record: for Crystal form change: XRPD; for Stability sample purity (area percentage): initial purity 98.86. The protocol: as §1
The solid samples placed under different conditions were tested for purity by HPLC to assess the chemical stability and for crystal form by XRPD to assess the physical stability.

The nature of series [7]: Suspension competition experiments on anhydrous crystal forms A and B of maleate (XRPD). The note with it: for Results (crystal form by XRPD after suspension competition): 3 days. The protocol: Suspention competition experiments on anhydrous crystal forms A and B of maleate were conducted as follows: Four 5-mL vials were taken, IPA (2 mL) and IPAc (2 mL) were added to each vial, and excessive crystal form B of maleate was added. The mixtures were stirred at room temperature/50° C. for 24 h, and then filtered to obtain saturated solutions of the maleate in IPA and IPAc. About 10 mg of a crystal form A/B of maleate was added to each saturated solution, the mixtures were suspended and stirred at room temperature/50° C. for 3 days, and then subjected to the XRPD test.

The nature of series [8]: Crystal form transformation on heating, cooling or drying. The protocol: The obtained sample was determined to be a crystal form E of maleate of the multi-substituted benzene ring compound of formula II by X-ray powder diffraction.
Setting [9] is: FaSSIF, FaSSIF, read-out: Dynamic solubility in FaSSIF.
Where [10] appears, read: FeSSIF, FeSSIF, read-out: Dynamic solubility in FeSSIF.
Where [11] appears, read: SGF, simulated gastric fluid, SGF, read-out: Dynamic solubility in SGF.
[12] abbreviates: water, water, read-out: Dynamic solubility in water.
Where [13] appears, read: open vial, 25° C./60% RH, one week.
[14] abbreviates: open vial, 40° C./75% RH, one week.

Consider eight compounds from patent US12528795B2, “Crystal form of multi-substituted benzene ring compound maleate, and preparation method therefor and use thereof” (EVOPOINT BIOSCIENCES CO., LTD., priority 2020, dated 2026).

In brackets after ≈: the same amount, converted by molar mass. Entries after “also recorded” stand apart in the source; their conditions may differ. Like-named read-outs stand apart in the source and are kept apart here.

As to `CCN(c1cc(O[C@H]2C[C@H](N3CCCCC3)C2)cc(C(=O)NCc2c(C)cc(C)[nH]c2=O)c1C)C1CCOCC1.O=C(O)CCC(=O)O` [Crystal form A of succinate], in series [1], the “DVS vapor sorption (25° C./80% RH, %)” value is 2.1%. The solubility in series [2] (setting [9]) is 5390 µg/mL; in series [2] (setting [10]), more than 7350 µg/mL; in series [2] (setting [11]), not below 6000 µg/mL; in series [2] (setting [12]), more than 8440 µg/mL.

As for `CCN(c1cc(O[C@H]2C[C@H](N3CCCCC3)C2)cc(C(=O)NCc2c(C)cc(C)[nH]c2=O)c1C)C1CCOCC1.O=C(O)/C=C\C(=O)O` [Crystal form A/C/D of maleate], the “Result (crystal form by XRPD after suspension competition)” value is listed as “Crystal form C of maleate” in series [3] (50° C., 1 day); “Crystal form C of maleate” in series [3] (80° C., 3.5 h); “Crystal form A of maleate” in series [4] (EtOH); “Crystal form C of maleate” in series [4] (EtOH/H2O (70:30, aw = 0.8)); “Crystal form C of maleate” in series [4] (EtOH/H2O (82:18, aw = 0.6)); “Crystal form C of maleate” in series [4] (EtOH/H2O (91:9, aw = 0.4)). The “Result (crystal form by XRPD after suspension competition)” value in series [4] (EtOH/H2O (96:4, aw = 0.2)) was “Crystal form A of maleate”; in series [4] (H2O) it was “Crystal form C of maleate”.

Regarding `CCN(c1cc(O[C@H]2C[C@H](N3CCCCC3)C2)cc(C(=O)NCc2c(C)cc(C)[nH]c2=O)c1C)C1CCOCC1` [Free crystal form D], the “DVS vapor sorption (25° C./80% RH, %)” value in series [1] amounted to 1.3%. In addition, the solubility is 420 µg/mL (≈ 763 µM) in series [2] (setting [9]), more than 7350 µg/mL in series [2] (setting [10]), 6980 µg/mL (≈ 12700 µM) in series [2] (setting [11]) and 16 µg/mL (≈ 29.1 µM) in series [2] (setting [12]).

Take `CCN(c1cc(O[C@H]2C[C@H](N3CCCCC3)C2)cc(C(=O)NCc2c(C)cc(C)[nH]c2=O)c1C)C1CCOCC1.O=C(O)/C=C\C(=O)O` [Crystal form A of maleate]: the “Angle of repose of a single API” value in series [5] is “about 40 °”; in series [5] (as printed in b231), “about 400”. In series [6] (before storage), the “Initial purity (area percentage)” value stood at 98.86 area percentage. Besides, the Crystal form change entry in series [6] (setting [13]) is given as “Unchanged”; in series [6] (setting [14]) it was “Unchanged”; in series [6] (open vial, 60° C., 24 h) it was “Unchanged”. Also, the “Stability sample purity (area percentage)” value in series [6] (setting [13]) is 98.79 area percentage; in series [6] (setting [14]), 98.79 area percentage; in series [6] (open vial, 60° C., 24 h), 98.79 area percentage. Moreover, the “Physical and chemical stability under three test conditions” value in series [6] (open vial, 60° C. one day, 25° C./60% RH and 40° C./75% RH one week) is “did not undergo crystal form transformation and chemical purity decrease; also recorded: no crystal form transformation and chemical purity decrease”. Further, in series [3] (conclusion from the examples and suspension competition experiments), the “Stability ranking among the 5 crystal forms of maleate” value is recorded as “most stable among the 5 crystal forms of maleate”. For the same compound, in series [7] (room temperature/50° C.), the “Relative stability of crystal forms A and B of maleate” value is given as “more stable than the crystal form B”. Moreover, in series [1], the “DVS vapor sorption (25° C./80% RH, %)” value was determined as 0.4%. Also, the “Crystal form after DVS test” value in series [1] is “Unchanged”; in series [1] (listed as crystal form A of maleate), “crystal form transformation did not occur”. For the same compound, the solubility in series [2] (setting [9]) was 4150 µg/mL; in series [2] (setting [10]) it was more than 7350 µg/mL; in series [2] (setting [11]), not below 6000 µg/mL; in series [2] (setting [12]), 6990 µg/mL.

In the case of `Br.CCN(c1cc(O[C@H]2C[C@H](N3CCCCC3)C2)cc(C(=O)NCc2c(C)cc(C)[nH]c2=O)c1C)C1CCOCC1` [Crystal form A of hydrobromide], the “DVS vapor sorption (25° C./80% RH, %)” value in series [1] was 5.2%. In addition, the solubility amounted to 1390 µg/mL in series [2] (setting [9]), 5330 µg/mL in series [2] (setting [10]) and 4260 µg/mL in series [2] (setting [12]).

Take `CCN(c1cc(O[C@H]2C[C@H](N3CCCCC3)C2)cc(C(=O)NCc2c(C)cc(C)[nH]c2=O)c1C)C1CCOCC1.O=C(O)/C=C\C(=O)O` [Crystal form E of maleate]: the “Crystal form transformation after cooling to room temperature” value in series [8] (form obtained only at high temperature, then cooled to room temperature) is “retransformed into the crystal form A of maleate”.

Regarding `CCN(c1cc(O[C@H]2C[C@H](N3CCCCC3)C2)cc(C(=O)NCc2c(C)cc(C)[nH]c2=O)c1C)C1CCOCC1.O=C(O)/C=C\C(=O)O` [Crystal form A/B of maleate], the “Results (crystal form by XRPD after suspension competition)” value in series [7] (IPA, 50° C.) was “Crystal form A of maleate”; in series [7] (IPA, room temperature), “Crystal form A of maleate”; in series [7] (IPAc, 50° C.), “Crystal form A of maleate”; in series [7] (IPAc, room temperature) it was “Crystal form A of maleate”.

In the case of `CCN(c1cc(O[C@H]2C[C@H](N3CCCCC3)C2)cc(C(=O)NCc2c(C)cc(C)[nH]c2=O)c1C)C1CCOCC1.O=C(O)/C=C\C(=O)O` [Crystal form C of maleate], the “Crystal form transformation by suspending and stirring” value in series [3] (ethanol solution with a water activity of 0.2 or absolute ethanol, room temperature) is recorded as “transformed into the crystal form A”. For the same compound, in series [8] (dried at 170° C.), the “Crystal form transformation after drying” value is listed as “transformed into the crystal form A”.

The solubility is the concentration that dissolves in the medium under given conditions.
